Results: BindingDB's records for doi:10.1016/j.bmcl.2003.08.040 (Toa Eiyo, 2003)

Each compound was assayed against Chymotrypsinogen A (Bos taurus) (UniProt P00766) (assay: In vitro inhibitory activity against bovin chymotrypsin).

| Compound | IC50 [µM] |
| --- | --- |
| COC(=O)c1ccc(NS(=O)(=O)c2sc3ccc(F)cc3c2C)c(S(C)(=O)=O)c1 [4-(5-Fluoro-3-methyl-benzo[b]thiophene-2-sulfonylamino)-3-methanesulfonyl-benzoic acid methyl ester] | > 10 |
| CC(=O)c1ccc(NS(=O)(=O)c2sc3ccc(F)cc3c2C)c(S(C)(=O)=O)c1 [5-Fluoro-3-methyl-benzo[b]thiophene-2-sulfonic acid (4-acetyl-2-methanesulfonyl-phenyl)-amide] | > 10 |
| COC(=O)c1ccc(NS(=O)(=O)c2sc3ccc(Cl)cc3c2C)c(S(C)(=O)=O)c1 [4-(5-Chloro-3-methyl-benzo[b]thiophene-2-sulfonylamino)-3-methanesulfonyl-benzoic acid methyl ester] | > 10 |
